Test system: male Wistar rats, hypothermia induced by the D3 dopaminergic agonist 7-OH-DPAT
Assay: Hypothermia in the rat induced by the D3 agonist 7-OH-DPAT (reversal test)
Type: in vivo
Conditions: for ΔT°C. (rectal temperature vs base values): measured 30 min after, mean ± sem, n ≥ 5
Description: That selectivity makes the compounds of the present invention valuable especially for use as medicaments that act on the dopaminergic system without causing the undesirable effects of D2 ligands.
In vivo: by the capacity of the products of the invention to modulate hypothermia induced in the rat by the D3 dopaminergic agonist: 7-OH-DPAT.
1.2 In vivo - Hypothermia in the rat
The tests were carded out on male Wistar rats weighing 200-250 g placed in individual cages with free access to food and water. The products were dissolved in distilled water to which several drops of lactic acid are added. The injections were effected in a volume of 1.0 ml/kg by the subcutaneous route. The doses are expressed in terms of the base. The rectal temperature of the rats was recorded using a digital thermistoprobe (Millan et al, I.P.E.T., 1993, 264, p. 1364-1376). During a first period, the rats were injected with the compound to be tested or the carrier, and were then put back in their cages for 30 minutes. The rats were then given an injection of 7-OH-DPAT (0.16 mg/kg) and were placed in their cages again. Thirty minutes later, the rectal temperature was measured and the difference was determined by comparison with the base values (.increment.T° C.). The inhibitory dose (95 % confidence limits) for reducing the effect of the 7-OH-DPAT by 50 % was calculated according to the Finney method (Statistical Method in Biological Assays, 2nd ed., Hafner Publishing, New York, 1964).

| SMILES | ΔT°C. (rectal temperature vs base values) (injection 1: carrier, injection 2: 7-OH-DPAT 0.16 mg/kg s.c.) [°C] | ED50 (Rattus norvegicus, sc, 7-OH-DPAT 0.16 mg/kg, Finney method, 95 % confidence limits in brackets, read-out: inhibitory dose (ID50) (95 % C.L.) for reducing the effect of 7-OH-DPAT by 50 %) [mg/kg] | ΔT°C. (rectal temperature vs base values) (injection 1: product 0.16 mg/kg s.c., injection 2: 7-OH-DPAT 0.16 mg/kg 30 min later) [°C] |
| --- | --- | --- | --- |
| CCCN(CCC)C1CCc2ccc(O)cc2C1 (stereo not drawn) [Example 7-OH-DPAT, reference compound] | -1.66 ± 0.07 |  |  |
| CCCN1CCO[C@@H]2c3cc4c(cc3CC[C@H]21)CCS4 (relative stereo) [Example 2, Trans-3,4,4a,5,6,8,9,11b-octahydrothieno[2,3-b]-1,4-oxazino[3,2-h]-4-propyl-2H-naphthalene] |  | 0.41 | -1.48 ± 0.44 |
